In patent EP0240391A1, “Silver salt derived from naphthyridine, useful as a bactericide, process for its preparation and compositions containing it” (EDMOND PHARMA S.R.L., priority 1986, dated 1987):

Experiments:
Escherichia coli = test: In vitro antibacterial activity, MIC (CMI) by agar dilution method; assay type: cell-based; details: 5 strains
Excerpt: (§1) Pour l'évaluation des activités antibactérienne et antifongique ont été testées 24 souches de bactéries et 11 de champignons isolées de matériel pathologique humain récent ou provenant de collections internationales, ainsi subdivisées :
(§2) Pour l'activité in vitro on a déterminé la CMI par la méthode des dilutions (milieu agar) selon la technique classique.
(§3) La solution mère des produits à tester (composé de formule I et acide libre de départ) a été préparée par dissolution dans le diméthylsulfoxyde et addition d'eau distillée dans le rapport 1 : 1O. Les solutions ultérieures ont été préparées par dilution avec de l'eau distillée ou avec le terrain minimum essential d'Eagle contenant 3 % de serum de veau.
(§4) Les concentrations ont été exprimées en µg de substance active, calculée comme acide libre, par ml de milieu.
(§5) Le tableau I montre l'activité antibactérienne in vitro du sel d'argent de formule I ci-dessus (Composé I) et de l'acide libre correspondant (Acide libre), exprimée par le nombre de souches sensibles aux produits testés à des concentrations de 3O à O,O1 µg/ml.

Pseudomonas aeruginosa = test: as above; assay type: cell-based; details: 4 strains
Excerpt: as §1, §2, §3, §4, §5

[1] = tested on: Staphylococcus aureus (pen. rés.); test: as above; assay type: cell-based; details: 2 penicillin-resistant strains
Excerpt: as §1, §2, §3, §4, §5

Staphylococcus aureus = test: as above; assay type: cell-based; details: 4 strains
Excerpt: as §1, §2, §3, §4, §5

[2] = tested on: Streptococcus epidermidis; test: as above; assay type: cell-based; details: 3 strains
Excerpt: as §1, §2, §3, §4, §5

Streptococcus faecalis = test: as above; assay type: cell-based; details: 2 strains
Excerpt: as §1, §2, §3, §4, §5

Streptococcus pyogenes = test: as above; assay type: cell-based; details: 4 strains
Excerpt: as §1, §2, §3, §4, §5

Candida albicans = test: In vitro antifungal activity, MIC (CMI) by agar dilution method; assay type: cell-based; details: for nombre de souches sensibles aux concentrations suivantes (en µg/ml): 5 strains
Excerpt: as §1, §2, §3, §4

[3] = tested on: Trichophyton mentagrophytes; test: as above; assay type: cell-based; details: for nombre de souches sensibles aux concentrations suivantes (en µg/ml): 4 strains
Excerpt: as §1, §2, §3, §4

Trichophyton rubrum = test: as above; assay type: cell-based; details: for nombre de souches sensibles aux concentrations suivantes (en µg/ml): 2 strains
Excerpt: as §1, §2, §3, §4

[4] = Photosensitivity compared with other antibacterial silver salts; assay type: physicochemical; details: e.g. sel d'argent de la sulfadiazine, solid state and in solution
[5] = compared with the corresponding free acid; from European patent 49593; cited from earlier work

Compound: CCn1cc(C(=O)O)c(=O)c2cc(F)c(N3CCNCC3)nc21 [Acide libre, acide 1-éthyl-6-fluoro-1,4-dihydro-4-oxo-7-(1-pipérazinyl)-1,8-naphtyridine-3-carboxylique, reference compound]
- Nombre de souches sensibles aux concentrations suivantes (µg/ml) (Escherichia coli; 0,1 µg/ml (as free acid)): 2
- Nombre de souches sensibles aux concentrations suivantes (µg/ml) (Escherichia coli; 0,03 µg/ml (as free acid)): 1
- Nombre de souches sensibles aux concentrations suivantes (µg/ml) (Escherichia coli; 0,3 µg/ml (as free acid)): 2
- Nombre de souches sensibles aux concentrations suivantes (µg/ml) (Pseudomonas aeruginosa; 0,3 µg/ml (as free acid)): 3
- Nombre de souches sensibles aux concentrations suivantes (µg/ml) (Pseudomonas aeruginosa; 1 µg/ml (as free acid)): 1
- Nombre de souches sensibles aux concentrations suivantes (µg/ml) ([1]; 0,3 µg/ml (as free acid)): 1
- Nombre de souches sensibles aux concentrations suivantes (µg/ml) ([1]; 1 µg/ml (as free acid)): 1
- Nombre de souches sensibles aux concentrations suivantes (µg/ml) (Staphylococcus aureus; 0,1 µg/ml (as free acid)): 1
- Nombre de souches sensibles aux concentrations suivantes (µg/ml) (Staphylococcus aureus; 1 µg/ml (as free acid)): 2
- Nombre de souches sensibles aux concentrations suivantes (µg/ml) ([2]; 3 µg/ml (as free acid)): 2
- Nombre de souches sensibles aux concentrations suivantes (µg/ml) ([2]; 10 µg/ml (as free acid)): 1
- Nombre de souches sensibles aux concentrations suivantes (µg/ml) (Streptococcus faecalis; 10 µg/ml (as free acid)): 1
- Nombre de souches sensibles aux concentrations suivantes (µg/ml) (Streptococcus faecalis; 30 µg/ml (as free acid)): 1
- Nombre de souches sensibles aux concentrations suivantes (µg/ml) (Streptococcus pyogenes; 1 µg/ml (as free acid)): 1
- Nombre de souches sensibles aux concentrations suivantes (µg/ml) (Streptococcus pyogenes; 3 µg/ml (as free acid)): 1
- Nombre de souches sensibles aux concentrations suivantes (µg/ml) (Streptococcus pyogenes; 10 µg/ml (as free acid)): 2
- MIC (Candida albicans; Candida albicans, same 5 strains as Table II, read-out: activité antifongique: inactif jusqu'à des concentrations de): > 1 µg/mL
- MIC ([3]; Trichophyton mentagrophytes, same 4 strains as Table II, read-out: activité antifongique: inactif jusqu'à des concentrations de): > 1 µg/mL
- MIC (Trichophyton rubrum; Trichophyton rubrum, same 2 strains as Table II, read-out: activité antifongique: inactif jusqu'à des concentrations de): > 1 µg/mL

Compound: sel d'argent de l'acide 1-éthyl-6-fluoro-1,4-dihydro-4-oxo-7-(1-pipérazinyl)-1,8-naphtyridine-3-carboxylique [Composé I]
- Nombre de souches sensibles aux concentrations suivantes (µg/ml) (Escherichia coli; 0,1 µg/ml (as free acid)): 2
- Nombre de souches sensibles aux concentrations suivantes (µg/ml) (Escherichia coli; 0,03 µg/ml (as free acid)): 1
- Nombre de souches sensibles aux concentrations suivantes (µg/ml) (Escherichia coli; 0,3 µg/ml (as free acid)): 2
- Nombre de souches sensibles aux concentrations suivantes (µg/ml) (Pseudomonas aeruginosa; 0,1 µg/ml (as free acid)): 3
- Nombre de souches sensibles aux concentrations suivantes (µg/ml) (Pseudomonas aeruginosa; 0,03 µg/ml (as free acid)): 1
- Nombre de souches sensibles aux concentrations suivantes (µg/ml) ([1]; 0,1 µg/ml (as free acid)): 1
- Nombre de souches sensibles aux concentrations suivantes (µg/ml) ([1]; 0,3 µg/ml (as free acid)): 1
- Nombre de souches sensibles aux concentrations suivantes (µg/ml) (Staphylococcus aureus; 0,1 µg/ml (as free acid)): 3
- Nombre de souches sensibles aux concentrations suivantes (µg/ml) (Staphylococcus aureus; 0,3 µg/ml (as free acid)): 1
- Nombre de souches sensibles aux concentrations suivantes (µg/ml) ([2]; 0,3 µg/ml (as free acid)): 1
- Nombre de souches sensibles aux concentrations suivantes (µg/ml) ([2]; 1 µg/ml (as free acid)): 1
- Nombre de souches sensibles aux concentrations suivantes (µg/ml) ([2]; 3 µg/ml (as free acid)): 1
- Nombre de souches sensibles aux concentrations suivantes (µg/ml) (Streptococcus faecalis; 1 µg/ml (as free acid)): 1
- Nombre de souches sensibles aux concentrations suivantes (µg/ml) (Streptococcus faecalis; 3 µg/ml (as free acid)): 1
- Nombre de souches sensibles aux concentrations suivantes (µg/ml) (Streptococcus pyogenes; 1 µg/ml (as free acid)): 1
- Nombre de souches sensibles aux concentrations suivantes (µg/ml) (Streptococcus pyogenes; 3 µg/ml (as free acid)): 2
- Nombre de souches sensibles aux concentrations suivantes (µg/ml) (Streptococcus pyogenes; 10 µg/ml (as free acid)): 1
- nombre de souches sensibles aux concentrations suivantes (en µg/ml) (Candida albicans; 3 µg/ml (as free acid)): 1
- nombre de souches sensibles aux concentrations suivantes (en µg/ml) (Candida albicans; 10 µg/ml (as free acid)): 3
- nombre de souches sensibles aux concentrations suivantes (en µg/ml) (Candida albicans; 30 µg/ml (as free acid)): 1
- nombre de souches sensibles aux concentrations suivantes (en µg/ml) ([3]; 3 µg/ml (as free acid)): 1
- nombre de souches sensibles aux concentrations suivantes (en µg/ml) ([3]; 10 µg/ml (as free acid)): 2
- nombre de souches sensibles aux concentrations suivantes (en µg/ml) ([3]; 30 µg/ml (as free acid)): 1
- nombre de souches sensibles aux concentrations suivantes (en µg/ml) (Trichophyton rubrum; 10 µg/ml (as free acid)): 1
- nombre de souches sensibles aux concentrations suivantes (en µg/ml) (Trichophyton rubrum; 30 µg/ml (as free acid)): 1
- photosensibilité [4]: moins photosensible

Compound: sel d'argent de l'acide 1-éthyl-6-fluoro-1,4-dihydro-4-oxo-7-(1-pipérazinyl)-quinolinyl-3-carboxilique
- activité antibactérienne [5]: du même ordre que celle de l'acide libre correspondant
